Experimental data reported in patent US8586505B2 (SDS Biotech K. K., priority 2009, dated 2013).

Legend:
Format in all cases: in vivo
Phytophthora infestans = assay: whole plant or invertebrate; conditions: in Solanum lycopersicum, 96 h, read-out: Determination of control effect (preventive value)
Sphaerotheca fuliginea = assay: Test of examining control effect on Sphaerotheca fuliginea (potted cucumber plants); conditions: Podosphaera fuliginea, 336 h; 10% wettable powder adjusted to 125 ppm, 15 ml/pot sprayed on potted cucumber plants one day before spray inoculation; assessed after 14 days in greenhouse; read-out: Determination of control effect (preventive value) on Sphaerotheca fuliginea
Experimental: (§1) Calculation of Preventive Value: Preventive value={(untreated lesion area rate−treated lesion area rate)/untreated lesion area rate}×100
(§2) Using the thus calculated preventive value, the control effect of each compound was determined in accordance with the following standards.
(§3) High control effect: 100%≧preventive value≧60%
(§4) Low control effect: 60%>preventive value≧0%
Using a spray gun, an agent solution prepared by adjusting a 10% wettable powder of each sample compound to 125 ppm (hereinafter referred to as a “sample agent solution”) was sprayed to potted cucumber plants (variety: Sagamihanjiro, 2nd leave stage) in a concentration of 15 ml/pot. One day after the spraying, a conidial suspension of Sphaerotheca fuliginea (conidial concentration: 1.0×10^5 cells/ml) was applied to the plants by spray inoculation. The plants were left in a greenhouse for 14 days, so that they were fully infected with the aforementioned disease. Thereafter, the disease level on each leaf was compared with that on an untreated leaf, and the control effect of each compound was determined in the same manner as in Example 3(1).

[1] = test system: Pseudoperonospora cubensis; assay: Test of examining control effect on Pseudoperonospora cubensis (potted cucumber plants); conditions: 96 h, 10% wettable powder adjusted to 125 ppm, 15 ml/pot sprayed on potted cucumber plants one day before spray inoculation, assessed after 1 day wet chamber and 3 days greenhouse, read-out: Determination of control effect (preventive value) on Pseudoperonospora cubensis
Experimental: as §1, §2, §3, §4
Using a spray gun, an agent solution prepared by adjusting a 10% wettable powder of each sample compound to 125 ppm (hereinafter referred to as a “sample agent solution”) was sprayed to potted cucumber plants (variety: Sagamihanjiro, 2.5 leave stage) in a concentration of 15 ml/pot. One day after the spraying, a conidial suspension of Pseudoperonospora cubensis (conidial concentration: 1.0×10^4 cells/ml) was applied to the plants by spray inoculation. After completion of the inoculation, the plants were left at 21° C. under wet chamber conditions for 1 day, and were then left in a greenhouse for 3 days, so that they were fully infected with the aforementioned disease. Thereafter, the disease level on each leaf was compared with that on an untreated leaf, and the control effect of each compound was determined in the same manner as in Example 3(1).

| SMILES | pest or weed control at 125 ppm (Phytophthora infestans) | pest or weed control at 125 µg/mL (Sphaerotheca fuliginea) | pest or weed control at 125 µg/mL [1] |
| --- | --- | --- | --- |
| Fc1ccc(Oc2nc(C#CCCNc3ncnc4ccccc34)cs2)cc1 [compound 226] | 60 to 100% | 60 to 100% | 60 to 100% |
| C[Si](C)(C)C#CCCNc1ncnc2ccccc12 [compound 87] | 60 to 100% | 60 to 100% | 60 to 100% |
| Cc1nc(C#CCCNc2ncnc3ccccc23)cs1 [compound 211] | 60 to 100% | 60 to 100% | 60 to 100% |
| COc1cc(C#CCCNc2ncnc3ccccc23)ccn1 [compound 199] | 60 to 100% | 60 to 100% | 60 to 100% |
| C(#CC1CCCCC1)CCNc1ncnc2ccccc12 [compound 91] | 60 to 100% | 60 to 100% | 60 to 100% |
| FC(F)(F)c1ccccc1C#CCCNc1ncnc2cccc(Cl)c12 [compound 310] | 0 to 60% | 60 to 100% | 60 to 100% |
| C[Si](C)(C)C#CCCNc1ncnc2sccc12 [Compound No. 2, 4-(4-Trimethylsilanyl-3-butynylamino)thieno[2,3-d]pyrimidine] | 60 to 100% | 60 to 100% | 60 to 100% |
| C(#Cc1cccc2ncccc12)CCNc1ncnc2ccccc12 [compound 191] | 0 to 60% | 0 to 60% | 60 to 100% |
| CC(C)Oc1ccccc1C#CCCNc1ncnc2ccccc12 [compound 119] | 60 to 100% | 60 to 100% | 60 to 100% |
| COc1nc(C#CCCNc2ncnc3ccccc23)cs1 [compound 212] | 60 to 100% | 60 to 100% | 60 to 100% |
| COCc1ccc(C#CCCNc2ncnc3ccccc23)cc1 [compound 136] | 0 to 60% | 60 to 100% | 60 to 100% |
| COCc1cc(C)ccc1C#CCCNc1ncnc2ccccc12 [compound 145] | 60 to 100% | 60 to 100% | 60 to 100% |
| N#Cc1ccccc1C#CCCNc1ncnc2ccccc12 [compound 102] | 60 to 100% | 60 to 100% | 60 to 100% |
| COCc1ccccc1C#CCCNc1ncnc2cc(F)ccc12 [compound 316] | 60 to 100% | 60 to 100% | 60 to 100% |
| COCc1ccccc1C#CCCNc1ncnc2ccc(Cl)cc12 [compound 313] | 0 to 60% | 60 to 100% | 60 to 100% |
| O=C(O)c1ccc(C#CCCNc2ncnc3ccccc23)cc1 [compound 127] | 60 to 100% | 60 to 100% | 60 to 100% |
| Clc1cccc(C#CCCNc2ncnc3sccc23)c1 [compound 15] | 0 to 60% | 60 to 100% | 60 to 100% |
| Cc1cc(NCCC#Cc2ccc(Cl)cc2C(F)(F)F)ncn1 [compound 359] | 0 to 60% | 0 to 60% | 0 to 60% |
| CCOC(OCC)c1ccccc1C#CCCNc1ncnc2ccccc12 [compound 150] | 0 to 60% | 0 to 60% | 0 to 60% |
| COCc1ccccc1C#CCCNc1ncnc2c(C)cc(C)cc12 [compound 341] | 0 to 60% | 0 to 60% | 60 to 100% |
| COCc1ccccc1C#CCCNc1ncnc2ccc(-c3ccccc3F)cc12 [compound 334] | 0 to 60% | 0 to 60% | 60 to 100% |
| C(#Cc1ncccn1)CCNc1ncnc2sccc12 [compound 58] | 60 to 100% | 0 to 60% | 60 to 100% |
| CC(=O)c1ccc(C#CCCNc2ncnc3ccccc23)cc1 [compound 128] | 60 to 100% | 60 to 100% | 60 to 100% |

| SMILES | pest or weed control at 125 ppm (Phytophthora infestans) | pest or weed control at 125 µg/mL (Sphaerotheca fuliginea) | pest or weed control at 125 µg/mL [1] |
| --- | --- | --- | --- |
| COCc1ccccc1C#CCCNc1ncnc2c(C)cccc12 [compound 325] | 60 to 100% | 60 to 100% | 60 to 100% |
| Cc1ccc(C#CCC(C)Nc2ncnc3ccccc23)cc1 (stereo not drawn) [compound 279] | 60 to 100% | 60 to 100% | 60 to 100% |
| COCc1ccccc1C#CCCNc1ncnc2ccc(-c3cccc(F)c3)cc12 [compound 335] | 0 to 60% | 0 to 60% | 60 to 100% |
| FC(F)(F)c1ccccc1C#CCCNc1ncnc2c(Cl)cccc12 [compound 307] | 0 to 60% | 60 to 100% | 60 to 100% |
| C=Cc1ccc(C#CCCNc2ncnc3ccccc23)cc1 [compound 110] | 60 to 100% | 60 to 100% | 60 to 100% |
| COCc1cc(Cl)ccc1C#CCCNc1ncnc2ccccc12 [compound 140] | 60 to 100% | 60 to 100% | 60 to 100% |
| CC(CC#Cc1ccccc1Cl)Nc1ncnc2ccccc12 (stereo not drawn) [compound 272] | 60 to 100% | 60 to 100% | 60 to 100% |
| COc1cccc2c(NC(C)CC#Cc3ccc(Cl)cc3C(F)(F)F)ncnc12 (stereo not drawn) [compound 352] | 0 to 60% | 60 to 100% | 60 to 100% |
| COc1cc(OC)nc(C#CCCNc2ncnc3sccc23)n1 [compound 60] | 60 to 100% | 0 to 60% | 60 to 100% |
| CC(CC#Cc1ccc(C(F)(F)F)cc1Cl)Nc1ncnc2ccccc12 (stereo not drawn) [compound 282] | 0 to 60% | 60 to 100% | 60 to 100% |
| C(#CCc1ccccc1)CCNc1ncnc2sccc12 [compound 9] | 0 to 60% | 60 to 100% | 60 to 100% |
| COCc1nc(C#CCCNc2ncnc3sccc23)cs1 [compound 72] | 60 to 100% | 60 to 100% | 60 to 100% |
| COCc1cc(C)ccc1C#CCCNc1ncnc(C)c1Cl [compound 361] | 60 to 100% | 60 to 100% | 60 to 100% |
| CN(C)S(=O)(=O)c1ccccc1C#CCCNc1ncnc2ccccc12 [compound 161] | 60 to 100% | 0 to 60% | 60 to 100% |
| COCc1ccccc1C#CCCNc1ncnc2ccc(-c3cccnc3)cc12 [compound 337] | 0 to 60% | 0 to 60% | 60 to 100% |
| C#CCCNc1ncnc2ccccc12 [compound 86] | 0 to 60% | 60 to 100% | 60 to 100% |
| C(#Cc1cscn1)CCNc1ncnc2ccccc12 [compound 210] | 60 to 100% | 60 to 100% | 60 to 100% |
| COCc1ccc(C)cc1C#CCCNc1ncnc2ccccc12 [compound 144] | 60 to 100% | 60 to 100% | 60 to 100% |
| CN1C(=O)c2ccc(C#CCCNc3ncnc4sccc34)cc2C1=O [compound 84] | 60 to 100% | 0 to 60% | 60 to 100% |
| OCC(CC#Cc1ccccc1)Nc1ncnc2ccccc12 (stereo not drawn) [compound 299] | 60 to 100% | 0 to 60% | 60 to 100% |
| C(#Cc1ccc2c(c1)CCO2)CCNc1ncnc2ccccc12 [compound 157] | 0 to 60% | 60 to 100% | 60 to 100% |
| FC(F)(F)c1ccc(C#CCCNc2ncnc3ccccc23)cc1Cl [compound 177] | 60 to 100% | 60 to 100% | 60 to 100% |
| CC(CC#Cc1ccc(Cl)cc1C(F)(F)F)Nc1ncnc2c(Cl)cccc12 (stereo not drawn) [compound 349] | 0 to 60% | 60 to 100% | 60 to 100% |
